From patent publication US10245275B2 (ViiV HEALTHCARE UK (NO.4) LIMITED, priority 2014, dated 2019) come the findings set out here.

Like-named read-outs stand apart in the source and are kept apart here. Where only a bound is given, the exact number is not on record here.

Test [1] has as its system HIV-1 NL4-3 gag A364V virus. The test is described as follows: microbe, parasite or virus in culture. It is filed as cell-based. The protocol:
(§1) MT-2 cells and 293T cells were obtained from the NIH AIDS Research and Reference Reagent Program. MT-2 cells were propagated in RPMI 1640 media supplemented with 10% heat-inactivated fetal bovine serum, […]. The 293T cells were propagated in DMEM media supplemented with 10% heat-inactivated fetal bovine serum (FBS), 100 units/mL penicillin G and 100 μg/mL streptomycin. […] A recombinant NL4-3 virus, in which a section of the nef gene from NL4-3 was replaced with the Renilla luciferase gene, was used as a reference virus. In addition, residue Gag P373 was converted to P373S. […] Transfections were performed in 293T cells using LipofectAMINE PLUS from Invitrogen (Carlsbad, Calif.), according to manufacturer's instruction. The virus was titered in MT-2 cells using luciferase enzyme activity as a marker. Luciferase was quantitated using the Dual Luciferase kit from Promega (Madison, Wis.), with modifications to the manufacturer's protocol. The diluted Passive Lysis solution was pre-mixed with the re-suspended Luciferase Assay Reagent and the re-suspended Stop & Glo Substrate (2:1:1 ratio). Fifty (50) μL of the mixture was added to each aspirated well on assay plates and luciferase activity was measured immediately on a Wallac TriLux (Perkin-Elmer). Antiviral activities of inhibitors toward the recombinant virus were quantified by measuring luciferase activity in cells infected for 4-5 days with NLRluc recombinants in the presence serial dilutions of the inhibitor.
Both recombinant viruses were used as described above in the HIV cell culture assay for the NL4-3 virus.

Test [2] deals with WT (wild-type HIV virus; recombinant NL4-3 virus). The test is described as follows: microbe, parasite or virus in culture. The test is classed as cell-based, HIV-1. As for the experimental part: as §1
WT refers to wild-type HIV virus. […]

The mark [3] stands for this setting: Human immunodeficiency virus 1, NL43, MT2, read-out: A364V (EC50, uM), Table 1 regular screen, class symbol.
Setting [4] is: Human immunodeficiency virus 1, NL43, MT2, read-out: WT (EC50, uM), Table 1 regular screen, class symbol.
[5] abbreviates: Human immunodeficiency virus 1, NL43, MT2, read-out: A364V (EC50, uM), Table 1 regular screen, MT-2 cells, luciferase readout.
Setting [6] is: Human immunodeficiency virus 1, NL43, MT2, read-out: WT (EC50, uM), Table 1 regular screen, MT-2 cells, luciferase readout.

Turning to `C=C(C)[C@@H]1CC[C@]2(NCCC3(O)COC3)CC[C@]3(C)[C@H](CC[C@@H]4[C@@]5(C)CC=C(C6=CC[C@](CF)(C(=O)O)CC6)C(C)(C)[C@@H]5CC[C@]43C)[C@@H]12` [Example 2-10, (S)-1-(fluoromethyl)-4-((1R,3aS,5aR,5bR,7aR,11aS,11bR,13aR,13bR)-3a-((2-(3-hydroxyoxetan-3-yl)ethyl)amino)-5a,5b, 8,8,11a-pentamethyl-1-(prop-1-en-2-yl)-2,3,3a,4,5,5a,5b,6,7,7a,8,11,11a,11b,12,13,13a,13b-octadecahydro-1H-cyclopenta[a]chrysen-9-yl)cyclohex-3-enecarboxylic acid], the EC50 – broadly, the concentration that produces a half-maximal response – in test [1] (setting [3]) was greater than 0.05 µM; in test [2] (setting [4]), less than 0.05 µM.
On to `C=C(C)[C@@H]1CC[C@]2(NCCC3(O)CCOCC3)CC[C@]3(C)[C@H](CC[C@@H]4[C@@]5(C)CC=C(C6=CC[C@](CF)(C(=O)O)CC6)C(C)(C)[C@@H]5CC[C@]43C)[C@@H]12` [Example 2-12, (S)-1-(fluoromethyl)-4-((1R,3aS,5aR,5bR,7aR,11aS,11bR,13aR,13bR)-3a-((2-(4-hydroxytetrahydro-2H-pyran-4-yl)ethyl)amino)-5a,5b, 8,8,11a-pentamethyl-1-(prop-1-en-2-yl)-2,3,3a,4,5,5a,5b,6,7,7a,8,11,11a,11b,12,13,13a,13b-octadecahydro-1H-cyclopenta[a]chrysen-9-yl)cyclohex-3-enecarboxylic acid], for which the EC50 in test [1] (setting [5]) turned out to be 0.348 µM; in test [2] (setting [6]), 0.00201 µM.
As for `C=C(C)[C@@H]1CC[C@]2(NCCC3(O)CCS(=O)(=O)CC3)CC[C@]3(C)[C@H](CC[C@@H]4[C@@]5(C)CC=C(C6=CC[C@](CF)(C(=O)O)CC6)C(C)(C)[C@@H]5CC[C@]43C)[C@@H]12` [Example 2-13, (S)-1-(fluoromethyl)-4-((1R,3aS,5aR,5bR,7aR,11aS,11bR,13aR,13bR)-3a-((2-(4-hydroxy-1,1-dioxidotetrahydro-2H-thiopyran-4-yl)ethyl)amino)-5a,5b,8,8,11a-pentamethyl-1-(prop-1-en-2-yl)-2,3,3a,4,5,5a,5b,6,7,7a,8,11,11a,11b,12,13,13a,13b-octadecahydro-1H-cyclopenta[a]chrysen-9-yl)cyclohex-3-enecarboxylic acid], the concentration for a half-maximal effect (EC50) in test [1] (setting [3]) is greater than 0.05 µM; in test [2] (setting [4]) it was less than 0.05 µM.
As for `C=C(C)[C@@H]1CC[C@]2(NCCC3(O)CCN(S(C)(=O)=O)CC3)CC[C@]3(C)[C@H](CC[C@@H]4[C@@]5(C)CC=C(C6=CC[C@](CF)(C(=O)O)CC6)C(C)(C)[C@@H]5CC[C@]43C)[C@@H]12` [Example 2-14, (S)-1-(fluoromethyl)-4-((1R,3aS,5aR,5bR,7aR,11aS,11bR,13aR,13bR)-3a-((2-(4-hydroxy-1-(methylsulfonyl)piperidin-4-yl)ethyl)amino)-5a,5b,8,8,11a-pentamethyl-1-(prop-1-en-2-yl)-2,3,3a,4,5,5a,5b,6,7,7a,8,11,11a,11b,12,13,13a,13b-octadecahydro-1H-cyclopenta[a]chrysen-9-yl)cyclohex-3-enecarboxylic acid], the EC50 in test [1] (setting [5]) was 0.0431 µM; in test [2] (setting [6]), 0.00256 µM.
`C=C(C)[C@@H]1CC[C@]2(NCCC3(O)CCN(C(C)=O)CC3)CC[C@]3(C)[C@H](CC[C@@H]4[C@@]5(C)CC=C(C6=CC[C@](CF)(C(=O)O)CC6)C(C)(C)[C@@H]5CC[C@]43C)[C@@H]12` [Example 2-15, (S)-4-((1R,3aS,5aR,5bR,7aR,11aS,11bR,13aR,13bR)-3a-((2-(1-acetyl-4-hydroxypiperidin-4-yl)ethyl)amino)-5a,5b, 8,8,11a-pentamethyl-1-(prop-1-en-2-yl)-2,3,3a,4,5,5a,5b,6,7,7a,8,11,11a,11b,12,13,13a,13b-octadecahydro-1H-cyclopenta[a]chrysen-9-yl)-1-(fluoromethyl)cyclohex-3-enecarboxylic acid]: the results for the EC50 in test [1] (setting [5]) and in test [2] (setting [6]) were 0.151 µM and 0.00173 µM, respectively.
The matching figures for `C=C(C)[C@@H]1CC[C@]2(NCC[C@]3(O)CC[C@](C)(O)CC3)CC[C@]3(C)[C@H](CC[C@@H]4[C@@]5(C)CC=C(C6=CC[C@](CF)(C(=O)O)CC6)C(C)(C)[C@@H]5CC[C@]43C)[C@@H]12` [Example 2-16, (S)-4-((1R,3aS,5aR,5bR,7aR,11aS,11bR,13aR,13bR)-3a-((2-((trans)-1,4-dihydroxy-4-methylcyclohexyl)ethyl)amino)-5a,5b,8,8,11a-pentamethyl-1-(prop-1-en-2-yl)-2,3,3a,4,5,5a,5b,6,7,7a,8,11,11a,11b,12,13,13a,13b-octadecahydro-1H-cyclopenta[a]chrysen-9-yl)-1-(fluoromethyl)cyclohex-3-enecarboxylic acid]: 0.0571 µM and 0.0021 µM.
As to `C=C(C)[C@@H]1CC[C@]2(NCC[C@]3(O)CC[C@@](C)(O)CC3)CC[C@]3(C)[C@H](CC[C@@H]4[C@@]5(C)CC=C(C6=CC[C@](CF)(C(=O)O)CC6)C(C)(C)[C@@H]5CC[C@]43C)[C@@H]12` [Example 2-18, (S)-4-((1R,3aS,5aR,5bR,7aR,11aS,11bR,13aR,13bR)-3a-((2-((cis)-1,4-dihydroxy-4-methylcyclohexyl)ethyl)amino)-5a,5b,8,8,11a-pentamethyl-1-(prop-1-en-2-yl)-2,3,3a,4,5,5a,5b,6,7,7a,8,11,11a,11b,12,13,13a,13b-octadecahydro-1H-cyclopenta[a]chrysen-9-yl)-1-(fluoromethyl)cyclohex-3-enecarboxylic acid], the EC50 in test [1] (setting [5]) was 0.854 µM; in test [2] (setting [6]), 0.00165 µM.
As to `C=C(C)[C@@H]1CC[C@]2(NCC[C@]3(O)CC[C@@H](S(C)(=O)=O)CC3)CC[C@]3(C)[C@H](CC[C@@H]4[C@@]5(C)CC=C(C6=CC[C@](CF)(C(=O)O)CC6)C(C)(C)[C@@H]5CC[C@]43C)[C@@H]12` [Example 2-19, (S)-1-(fluoromethyl)-4-((1R,3aS,5aR,5bR,7aR,11aS,11bR,13aR,13bR)-3a-((2-((cis)-1-hydroxy-4-(methylsulfonyl)cyclohexyl)ethyl)amino)-5a,5b,8,8,11a-pentamethyl-1-(prop-1-en-2-yl)-2,3,3a,4,5,5a,5b,6,7,7a,8,11,11a,11 b,12,13,13a,13b-octadecahydro-1H-cyclopenta[a]chrysen-9-yl)cyclohex-3-enecarboxylic acid], the half-maximal effective concentration (EC50) in test [1] (setting [5]) worked out at 0.0222 µM; in test [2] (setting [6]) it was 0.00135 µM.
As for `C=C(C)[C@@H]1CC[C@]2(NCC[C@]3(O)CC[C@H](S(C)(=O)=O)CC3)CC[C@]3(C)[C@H](CC[C@@H]4[C@@]5(C)CC=C(C6=CC[C@](CF)(C(=O)O)CC6)C(C)(C)[C@@H]5CC[C@]43C)[C@@H]12` [Example 2-21, (S)-1-(fluoromethyl)-4-((1R,3aS,5aR,5bR,7aR,11aS,11bR,13aR,13bR)-3a-((2-((trans)-1-hydroxy-4-(methylsulfonyl)cyclohexyl)ethyl)amino)-5a,5b, 8,8,11a-pentamethyl-1-(prop-1-en-2-yl)-2,3,3a,4,5,5a,5b,6,7,7a,8,11,11a,11b,12,13,13a,13b-octadecahydro-1H-cyclopenta[a]chrysen-9-yl)cyclohex-3-enecarboxylic acid], the values for the EC50 in test [1] (setting [3]) and in test [2] (setting [4]) were greater than 0.05 µM and less than 0.05 µM, respectively.
